Results on 14 molecules are retold here after ChEMBL document CHEMBL3525927, “Measurement of unbound drug exposure in brain: modeling of pH partitioning explains diverging results between the brain slice and brain homogenate methods” (Drug Metab Dispos, 2011).

SMILES strings stand for the structures.

The nature of data set [1]: in vitro. To be noted: Sprague-Dawley, rat, brain homogenate.
The nature of data set [2]: in vivo. To be noted: Sprague-Dawley, rat.
For data set [3], the system named is Brain. As to the kind of experiment: Drug uptake in Sprague-Dawley rat brain slices in presence of 1 uM of decynium-22. The data set is classed as ADME, tissue-based.
For data set [4], the system named is Brain. Description: Drug uptake in Sprague-Dawley rat brain slices in presence of 50 nM of monensin. It is filed as ADME, tissue-based.
Data set [5] relates to Brain. To be noted: rat, 5 h, 0.1 µM.
Data set [6] is described as follows: Dissociation constant, pKa of the basic compound by capillary electrophoresis-mass spectrometry analysis. It is filed as physicochemical.
The nature of data set [7]: physchem.
Description: Dissociation constant, pKa of the acidic compound by capillary electrophoresis-mass spectrometry analysis
In data set [8] the test system is Brain. Description: Unbound volume of distribution in Sprague-Dawley rat brain slices at 100 nM after 5 hrs in presence of 10 uM of cyclosporine. To be noted: 0.1 µM. The data set is classed as ADME, tissue-based.
Data set [9] concerns Brain. To be noted: Sprague-Dawley, rat, brain homogenate, 5 µM.
Data set [10] concerns Brain. Description: Drug uptake in Sprague-Dawley rat brain slices in presence of 50 pM to 50 nM of monensin. It is filed as ADME, tissue-based.
In data set [11] the test system is Brain. To be noted: rat, in vivo, 5 h, 0.1 µM.
Description: Drug uptake in Sprague-Dawley rat brain slices at 100 nM after 5 hrs in presence of 10 uM of fumitremorgin-C
Data set [12] has as its system Brain. To be noted: rat, in vivo, 5 h, 0.1 µM. The source holds these as a separate data set.
Description: Drug uptake in Sprague-Dawley rat brain slices at 100 nM after 5 hrs in presence of 10 uM of fumitremorgin-C and 20 uM of MK-571
Data set [13] concerns Brain. To be noted: rat, in vivo, 5 h, 0.1 µM. The source holds these as a separate data set.
Description: Drug uptake in Sprague-Dawley rat brain slices at 100 nM after 5 hrs in presence of 20 uM of MK-571
The test system of data set [14] is Brain. As to the kind of experiment: Drug uptake in Sprague-Dawley rat brain slices at 100 nM after 5 hrs in presence of 10 uM of cyclosporine. To be noted: 0.1 µM. It is filed as ADME, tissue-based.

The fraction unbound is the share of the substance not bound to proteins or other matrix. For the molecule `CC[N+](CC)(CC)CC` [TETRYLAMMONIUM], the fraction unbound at 5 µM in data set [1] is 1. The molecule also had a Kp uu in [2] (brain) of 8.95. For the same molecule, the Compound recovery result in data set [3] was “Not Active”; in data set [4], “Active”. In data set [5] (in vivo), this molecule displayed a Vdu of 9 mL/g.

Broadly, the pKa is the pH at which an ionisable group is half protonated. Molecule `NCC(CC(=O)O)c1ccc(Cl)cc1` (stereo not given) [BACLOFEN] yielded an unbound share (fraction unbound) at 5 µM in data set [1] of 0.98. The molecule further yielded a Kp uu in data set [2] (brain and plasma) of 1.62. Further, the pKa in [6] was 3.7; in [7], 9.7. Also, the Vdu in data set [5] is 1.7 mL/g.

Molecule `CN(C)C(=O)C(CCN1CCC(O)(c2ccc(Cl)cc2)CC1)(c1ccccc1)c1ccccc1` [LOPERAMIDE] had a fraction unbound at 5 µM in [1] of 0.008. This molecule returned a Kp uu in data set [2] (brain and plasma) of 2.95. The “Unbound brain volume of distribution” value in data set [8] is “Active”. In [7], the pKa turned out to be 9. In data set [5], this molecule showed a Vdu of 370 mL/g.

Molecule `COc1ccc2c(c1)c(CC(=O)O)c(C)n2C(=O)c1ccc(Cl)cc1` [INDOMETHACIN] had a fraction unbound at 5 µM in [1] of 0.044. Also, the Kp uu in [2] (brain) came out at 0.6. Besides, in data set [4], the Compound recovery result was “Active”. Moreover, the Vdu in data set [5] (in vivo) was 14 mL/g.

In [2] (brain), `CO[C@@]1(NC(=O)C(C(=O)O)c2ccc(O)cc2)C(=O)N2C(C(=O)O)=C(CSc3nnnn3C)CO[C@@H]21` (stereo not given in full) [MOXALACTAM] returned a Kp uu of 0.46. Besides, the pKa in data set [6] worked out at 2.9. The Fu in [9] came to 12. This molecule also registered a Vdu in data set [5] (in vivo) of 0.46 mL/g.

For `CC(C)NCC(O)COc1cccc2ccccc12` (stereo not given) [PROPRANOLOL], the fraction unbound at 5 µM in data set [1] was 0.029. Moreover, in [10], the Compound recovery entry was “Not Active”. The molecule further gave a Vdu in [5] of 112 mL/g.

As for `CC(C)(C)NC(=O)[C@@H]1C[C@@H]2CCCC[C@@H]2CN1C[C@@H](O)[C@H](Cc1ccccc1)NC(=O)[C@H](CC(N)=O)NC(=O)c1ccc2ccccc2n1`, in data set [1], the fraction unbound at 5 µM stood at 0.0038. Moreover, in [2] (brain), the Kp uu is 0.79. Also, the “Unbound brain volume of distribution” value in data set [8] is “Active”. For the same molecule, the pKa in data set [7] came out at 6.8. The same molecule came in with a Vdu in [5] (in vivo) of 208 mL/g.

With `CN1CC[C@]23c4c5ccc(O)c4O[C@H]2[C@@H](O[C@@H]2O[C@H](C(=O)O)[C@@H](O)[C@H](O)[C@H]2O)C=C[C@H]3[C@H]1C5` [MORPHINE GLUCURONIDE], the fraction unbound at 5 µM in [1] turned out to be 0.87. The Kp uu in data set [2] (brain and plasma) is 0.86. Further, the pKa is 4.3 in data set [6] and 9 in data set [7]. This molecule also gave a Vdu in data set [5] of 0.98 mL/g.

Molecule `O=C1c2c(O)ccc(O)c2C(=O)c2c(NCCNCCO)ccc(NCCNCCO)c21` [MITOXANTRONE] gave a fraction unbound at 5 µM in [1] of 0.0046. The molecule also registered a Kp uu in [2] (brain and plasma) of 8.01. Moreover, the figures for the pKa in [6] and in [7] were 3.2 and 8.4, respectively. The Compound recovery entry in data set [11], in [12] and in data set [13] was “Active” throughout. The Vdu in data set [5] is 1757 mL/g.

Regarding `Cc1c(O)cccc1C(=O)N[C@@H](CSc1ccccc1)[C@H](O)CN1C[C@H]2CCCC[C@H]2C[C@H]1C(=O)NC(C)(C)C`, the fraction unbound at 5 µM in data set [1] is 0.00072. Moreover, the Kp uu in data set [2] (brain and plasma) was found to be 0.62. Also, the “Unbound brain volume of distribution” value in data set [8] is on record as “Active”. The Compound recovery entry in data set [14] is reported as “Not Active”. For the same molecule, the pKa in [7] is 6.3. The same molecule showed a Vdu in data set [5] of 860 mL/g.

`CN(C)C(=O)Oc1cccc([N+](C)(C)C)c1` [NEOSTIGMINE] registered a fraction unbound at 5 µM in data set [1] of 0.95. In addition, the Kp uu in [2] (brain and plasma) stood at 3.07. In addition, the Compound recovery result in [3] is given as “Not Active”; in [4], “Active”. This molecule registered a Vdu in [5] of 3.2 mL/g.

For the molecule `C[n+]1ccc(-c2ccccc2)cc1`, the fraction unbound at 5 µM in data set [1] worked out at 0.49. This molecule also gave a Kp uu in data set [2] (brain and plasma) of 77. Also, the Compound recovery result in data set [3] and in [4] was “Not Active” in each case. The same molecule returned a Vdu in data set [5] of 157 mL/g.

Regarding `CN(C)C(=N)N=C(N)N` [METFORMIN], the fraction unbound at 5 µM in [1] amounted to 0.95. For the same molecule, in [2] (brain and plasma), the Kp uu was 9.51. Besides, the Compound recovery result in data set [4] is reported as “Active”. In data set [5], the Vdu was 10 mL/g.

Molecule `C=C[C@H]1C[N+]2(C)CC[C@H]1C[C@@H]2[C@@H](O)c1ccnc2ccc(OC)cc12` displayed a fraction unbound at 5 µM in [1] of 0.23. The Kp uu in [2] (brain and plasma) was 1.06. For the same molecule, the “Unbound brain volume of distribution” value in data set [8] was “Active”. Also, the Compound recovery result in [3] is “Not Active”; in data set [4] it was “Active”. In addition, the Vdu in [5] was determined as 4.6 mL/g.
